PMC10062711 (Journal of Molecular Structure, 2023)
Values after ≈ are worked out from the molar mass of the structure shown.

What was measured:
B. subtilis (MTCC-121) = assay: In vitro antibacterial MIC, microbroth dilution; format: cell-based; conditions: for MIC B. subtilius: 24 h incubation; for potency against B. substilius compared to the standard drug: versus Streptomycin
A. niger = assay: In vitro antifungal MIC; format: cell-based; conditions: for MIC A. niger: 72-96 h incubation; for MIC: Aspergillus niger, read-out: MIC A. niger
[1] = test system: Mycobacterium tuberculosis H37Rv; assay: Antitubercular activity, Resazurin Assay method; format: cell-based; conditions: for % Inhibition: primary screening (6.5 mg/mL); for antitubercular activity compared to PZA: M. tuberculosis H37Rv, versus PZA
K. pneumonia (MTCC2272) = assay: In vitro antibacterial MIC, microbroth dilution; format: cell-based, K. pneumoniae; conditions: for MIC K. pneumoniae: 24 h incubation; for inhibitory activity against K. pneumoniae compared to standard drug: versus Streptomycin
E. coli (MTCC-443) = assay: In vitro antibacterial MIC, microbroth dilution; format: cell-based; conditions: for MIC E. coli: 24 h incubation; for MIC: Escherichia coli, MTCC443, 24 h, read-out: MIC E. coli
A. flavus = assay: In vitro antifungal MIC; format: cell-based; conditions: for MIC A .flavus: 72-96 h incubation; for MIC: Aspergillus flavus, read-out: MIC A .flavus
S. aureus (MTCC-96) = assay: In vitro antibacterial MIC, microbroth dilution; format: cell-based; conditions: for MIC S. aureus: 24 h incubation
P. aeruginosa (MTCC-741) = assay: In vitro antibacterial MIC, microbroth dilution; format: cell-based; conditions: for MIC P. aeruginosa: 24 h incubation; for MIC: Pseudomonas aeruginosa, MTCC741, 24 h, read-out: MIC P. aeruginosa
C. albicans = assay: In vitro antifungal MIC; format: cell-based; conditions: for MIC C. albicans: 72-96 h incubation; for MIC: Candida albicans, read-out: MIC C. albicans
Rhizopus sp = assay: In vitro antifungal MIC; format: cell-based; conditions: for MIC Rhizopus sp: 72-96 h incubation; for MIC: Rhizopus, read-out: MIC Rhizopus sp
[2] = test system: peripheral blood mononuclear cells (PBMC); conditions: MTT assay
[3] = Mycobacterium tuberculosis, H37RV

Molecule	MIC B. subtilius (B. subtilis (MTCC-121)) [µg/mL]	MIC A. niger (A. niger) [µg/mL]	% Inhibition ([1]; M. tb H37Rv) [%]	MIC K. pneumoniae (K. pneumonia (MTCC2272)) [µg/mL]	MIC E. coli (E. coli (MTCC-443)) [µg/mL]	MIC A .flavus (A. flavus) [µg/mL]	MIC S. aureus (S. aureus (MTCC-96)) [µg/mL]	MIC P. aeruginosa (P. aeruginosa (MTCC-741)) [µg/mL]	MIC C. albicans (C. albicans) [µg/mL]	MIC Rhizopus sp (Rhizopus sp) [µg/mL]	MIC [1, 3] [µg/mL]	inhibition at 6500 µg/mL [1, 3] [%]	also measured
3,5-Dimethyl-2,6-bis(p-chlorophenyl)−4H-pyran-4-one O-((1-phenyl-1H-1,2,3-triazol-4-yl) methyl)oxime [Compound 27]	50	25	75	50	6.3	25	25	25					MIC ([1]; M. tb H37Rv, neutral pH): 6.25 µg/mL; inhibitory activity against E. coli compared to Streptomycin (E. coli (MTCC-443); versus Streptomycin): two-fold
3,5-Dimethyl-2,6-bis(p-methoxyphenyl)pyran-4-one N-isonicotinoylhydrazone [Compound 12]	25	25	70	25	50	12.5	50	100	25	50			IC50 (cytotoxicity) [2]: 609.1 µg/mL; antitubercular activity compared to PZA [1]: twice
3,5-Dimethyl-2,6-bis(p-methoxyphenyl)−4H-pyran-4-one O-((1-phenyl-1H-1,2,3-triazol-4-yl)methyl)oxime [Compound 30]	25	12.5	80	25					25				
3,5-Dimethyl-2,6-bis(p-methoxyphenyl)−4H-pyran-4-one O-((3-(4-chlorophenyl) isoxazol-5-yl)methyl)oxime [Compound 36]	50	6.3	75	25	25	6.3	50	100	25	50			MIC ([1]; M. tb H37Rv, neutral pH): 6.25 µg/mL
3,5-Dimethyl-2,6-bis(p-methylphenyl)pyran-4-one N-isonicotinoylhydrazone [Compound 11]	25	50	76	25	12.5	25	12.5	25	50	50			IC50 (cytotoxicity) [2]: 587.6 µg/mL; antitubercular activity compared to PZA [1]: twice
3,5-Dimethyl-2,6-bis(p-methylphenyl)−4H-pyran-4-one O-((3-(4-chlorophenyl) isoxazol-5-yl)methyl) oxime [Compound 35]	12.5	25	82	25	25	25	12.5	25	25	50			potency against B. substilius compared to the standard drug (B. subtilis (MTCC-121)): two-fold; MIC ([1]; M. tb H37Rv, neutral pH): 6.25 µg/mL
3-Ethyl-2,6-diphenylpyran-4-one N-isonicotinoylhydrazone [Compound 8]	6.3	25	70	12.5	6.3	25	50	25	25	12.5			IC50 (cytotoxicity) [2]: 486.2 µg/mL; antitubercular activity compared to PZA [1]: twice
3-Ethyl-2,6-diphenyltetrahydro-4H-pyran-4-one O-ethynyl oxime [Compound 20]	25	25		25	12.5	100	12.5	25	100	50			activity against S. aureus compared to the standard drug (S. aureus (MTCC-96); versus Streptomycin): fourfold
3-Methyl-2,6-diphenylpyran-4-one N-isonicotinoylhydrazone [Compound 7]	12.5	50	73	12.5	6.3	12.5	25	12.5	25	25			MIC ([1]; M. tb H37Rv, neutral pH): 6.25 µg/mL
3-Methyl-2,6-diphenyltetrahydro-4H-pyran-4-one O-ethynyl oxime [Compound 19]	25	50		25	50	100	50	100	100	100			
CC1C(=NOCc2cn(-c3ccccc3)nn2)CC(c2ccccc2)OC1c1ccccc1 (stereo not shown) [Compound 25, 3-Methyl-2,6-diphenyltetrahydro-4H-pyran-4-one O-((1-phenyl-1H-1,2,3-triazol-4-yl)methyl)oxime]											6.25 (≈ 14.3 µM)	75	MIC (C. albicans): 25 µg/mL (≈ 57 µM); MIC (A. niger): 50 µg/mL (≈ 114 µM); MIC (Rhizopus sp): 25 µg/mL (≈ 57 µM); inhibitory activity against K. pneumoniae compared to standard drug (K. pneumonia (MTCC2272)): four-fold; MIC (E. coli (MTCC-443)): 25 µg/mL (≈ 57 µM); MIC (A. flavus): 12.5 µg/mL (≈ 28.5 µM); MIC (P. aeruginosa (MTCC-741)): 12.5 µg/mL (≈ 28.5 µM)
CCC1C(=NOCc2cn(-c3ccccc3)nn2)CC(c2ccccc2)OC1c1ccccc1 (stereo not shown) [Compound 26, 3-Ethyl-2,6-diphenyltetrahydro-4H-pyran-4-one O-((1-phenyl-1H-1,2,3-triazol-4-yl)methyl) oxime]											6.25 (≈ 13.8 µM)	70	MIC (C. albicans): 6.3 µg/mL (≈ 13.9 µM); MIC (A. niger): 25 µg/mL (≈ 55.2 µM); MIC (Rhizopus sp): 12.5 µg/mL (≈ 27.6 µM); inhibitory activity against K. pneumoniae compared to standard drug (K. pneumonia (MTCC2272)): four-fold; MIC (E. coli (MTCC-443)): 12.5 µg/mL (≈ 27.6 µM); MIC (A. flavus): 6.3 µg/mL (≈ 13.9 µM); MIC (P. aeruginosa (MTCC-741)): 25 µg/mL (≈ 55.2 µM)
CC1C(=NOCc2cc(-c3ccc(Cl)cc3)no2)CC(c2ccccc2)OC1c1ccccc1 (stereo not shown) [Compound 31, 3-Methyl-2,6-diphenyltetrahydro-4H-pyran-4-one-O-((3-(4-chlorophenyl)isoxazol-5-yl)methyl) oxime]	12.5 (≈ 26.4 µM)										6.25 (≈ 13.2 µM)	90	potency against B. substilius compared to the standard drug (B. subtilis (MTCC-121)): two-fold; MIC (C. albicans): 25 µg/mL (≈ 52.9 µM); MIC (A. niger): 50 µg/mL (≈ 106 µM); MIC (Rhizopus sp): 25 µg/mL (≈ 52.9 µM); MIC (E. coli (MTCC-443)): 12.5 µg/mL (≈ 26.4 µM); MIC (A. flavus): 12.5 µg/mL (≈ 26.4 µM); MIC (P. aeruginosa (MTCC-741)): 12.5 µg/mL (≈ 26.4 µM)
CCC1C(=NOCc2cc(-c3ccc(Cl)cc3)no2)CC(c2ccccc2)OC1c1ccccc1 (stereo not shown) [Compound 32, 3-Ethyl-2,6-diphenyltetrahydro-4H-pyran-4-one O-((3-(4-chlorophenyl)isoxazol-5-yl)methyl) oxime]	12.5 (≈ 25.7 µM)										6.25 (≈ 12.8 µM)	91	potency against B. substilius compared to the standard drug (B. subtilis (MTCC-121)): two-fold; MIC (C. albicans): 25 µg/mL (≈ 51.3 µM); MIC (A. niger): 25 µg/mL (≈ 51.3 µM); MIC (Rhizopus sp): 12.5 µg/mL (≈ 25.7 µM); MIC (E. coli (MTCC-443)): 25 µg/mL (≈ 51.3 µM); MIC (A. flavus): 6.3 µg/mL (≈ 12.9 µM); MIC (P. aeruginosa (MTCC-741)): 25 µg/mL (≈ 51.3 µM)
CC[C@@H](CO)NCCN[C@@H](CC)CO [EMB, Ethambutol, reference compound]											1.56 (≈ 7.64 µM)	> 95	
NNC(=O)c1ccncc1 [INH, isoniazid, reference compound]											0.1 (≈ 0.729 µM)	> 95	
NC(=O)c1cnccn1 [PZA, pyrazinamide, reference compound]											6.25 (≈ 50.8 µM)	> 90	
